The structures appear in SMILES notation.

The assay concerns the target T1, IRAK4 (Homo sapiens, UniProt Q9NWZ3).
T1 construct: endogenous in cells; host or cells: THP-1 cells
T1 sequence (Q9NWZ3 1-460): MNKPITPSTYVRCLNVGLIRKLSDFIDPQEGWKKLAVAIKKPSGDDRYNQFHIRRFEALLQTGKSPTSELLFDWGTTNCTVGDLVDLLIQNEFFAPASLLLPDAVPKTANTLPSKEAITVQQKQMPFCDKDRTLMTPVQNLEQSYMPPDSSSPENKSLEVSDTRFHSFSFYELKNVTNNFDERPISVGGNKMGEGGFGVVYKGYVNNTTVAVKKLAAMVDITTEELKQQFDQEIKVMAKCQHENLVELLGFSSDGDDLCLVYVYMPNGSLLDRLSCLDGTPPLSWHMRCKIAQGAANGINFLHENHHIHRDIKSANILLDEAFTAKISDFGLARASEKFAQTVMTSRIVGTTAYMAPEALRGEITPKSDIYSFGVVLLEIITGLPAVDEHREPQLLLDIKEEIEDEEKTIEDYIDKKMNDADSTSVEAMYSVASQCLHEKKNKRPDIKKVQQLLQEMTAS
Kind of assay: LVL THP1 HTRF (THP1 Homogeneous Time Resolved Fluorescence). Type of assay: cell-based. The settings on record: THP1 cells, 18 h incubation with compound; for DC50: read-out: LVL THP1 HTRF EC50. Put shortly:
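IRAK4 HTRF read-out (665/615 nm ratio, anti-IRAK4 d2 acceptor and K donor, 18 h dark incubation at room temperature) on lysates of THP-1 cells. Cells were treated 18 h at 37° C. with 20 nL compound in DMSO, in colorless RPMI with 10% FBS, with a duplicate CTG plate.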
A general note: TR-FRET usually uses a lanthanide donor and a delayed reading to cut background.

On to `C[C@H](C#N)Nc1cc(-n2ncc3cc(C#N)cnc32)ncc1-n1cc([C@H]2CC[C@H](CCN3CC[C@H]4[C@@H]3CCN4c3ccc([C@@]4(C)CCC(=O)NC4=O)nc3)CC2)nn1` (single isomer, unassigned) [P-287], for which the “LVL THP1 HTRF YMIN” value worked out at 51.0% and the DC50 came to 1350 nM.

As for `C[C@H](C#N)Nc1cc(-n2ncc3cc(C#N)cnc32)ncc1-n1cc([C@H]2CC[C@H](CCN3CCN(c4ccc5c(N6CCC(=O)NC6=O)nn(C)c5c4)CC3)CC2)nn1` [P-369], the “LVL THP1 HTRF YMIN” value was 3.0% and the DC50 was 2.2 nM.

In the case of `C[C@H](C#N)Nc1cc(-n2ncc3cc(C#N)cnc32)ncc1-n1cc([C@H]2CC[C@](O)(CCN3CCN(c4ccc(N5CCC(=O)NC5=O)cc4)CC3)CC2)nn1` (single isomer, unassigned) [P-373], the “LVL THP1 HTRF YMIN” value amounted to 72.5% and the DC50 worked out at 1000 nM.

Turning to `N#Cc1cnc2c(cnn2-c2cc(N[C@@H]3CCOC3)c(-n3cc([C@H]4CC[C@H](CCN5CCN(c6ccc(C7CCC(=O)NC7=O)cc6)CC5)CC4)nn3)cn2)c1` (stereo in doubt) [P-405], the “LVL THP1 HTRF YMIN” value amounted to 3.1% and the DC50 was 4.8 nM.

For the compound `C[C@H](C#N)Nc1cc(-n2ncc3cc(C#N)cnc32)ncc1-c1cn([C@H]2CC[C@H](CCN3CCN(c4ccc(N5CCC(=O)NC5=O)cc4)[C@H](C)C3)CC2)nn1` [P-501], the “LVL THP1 HTRF YMIN” value is reported as −2.28% and the DC50 was 2.2 nM.

On to `C[C@H](C#N)Nc1cc(-n2ncc3cc(C#N)cnc32)ncc1-n1cc([C@H]2CC[C@H](CCN3CCN(c4ccc(N5CCC(=O)NC5=O)c(F)c4)[C@H](C)C3)CC2)nn1` [P-436], for which the “LVL THP1 HTRF YMIN” value is given as −5.4% and the DC50 is 0.3 nM.

`Cc1cc(N2CCC(=O)NC2=O)ccc1C1CCN(CC[C@H]2CC[C@H](c3cn(-c4cnc(-n5ncc6cc(C#N)cnc65)cc4N[C@H](C)C#N)nn3)CC2)CC1` [P-334]: the “LVL THP1 HTRF YMIN” value is given as 23.5% and the DC50 was found to be 58.7 nM.

With `C[C@H](C#N)Nc1cc(-n2ncc3cc(C#N)cnc32)ncc1-n1cc([C@H]2CC[C@H](CCN3C[C@@H](C)N(c4ccc(N5CCC(=O)NC5=O)cc4)C[C@H]3C)CC2)nn1` [P-496], the “LVL THP1 HTRF YMIN” value was found to be 2.7% and the DC50 was 127 nM.

Take `C[C@H](C#N)Nc1cc(-n2ncc3cc(C#N)c(N)nc32)ncc1-n1cc([C@H]2CC[C@H](CCN3CCC(c4ccc([C@@]5(F)CCC(=O)NC5=O)cc4)CC3)CC2)nn1` (single isomer, unassigned) [P-318]: the “LVL THP1 HTRF YMIN” value is on record as 47.8% and the DC50 was 374 nM.

In the case of `C[C@H](C#N)Nc1cc(-n2ncc3cc(C#N)cnc32)ncc1-n1cc([C@H]2CC[C@H](CCN3CCN(c4ccc(N5CCC(=O)NC5=O)cc4)CC3)CC2)nn1` [P-366], the “LVL THP1 HTRF YMIN” value came to 2.0% and the DC50 came out at 10 nM.

As for `C[C@H](C#N)Nc1cc(-n2ncc3cc(C#N)c(N4C[C@H]5C[C@@H]4CO5)nc32)ncc1-n1cc([C@H]2CC[C@H](CCN3CCC(c4ccc([C@@]5(F)CCC(=O)NC5=O)cc4)CC3)CC2)nn1` (single isomer, unassigned) [P-319], the “LVL THP1 HTRF YMIN” value is 87.9% and the DC50 came out at 1000 nM.

Consider `C[C@H](C#N)Nc1nc(-n2ncc3cc(C#N)cnc32)ncc1-n1cc([C@H]2CC[C@H](CCN3CCN(c4ccc(C5CCC(=O)NC5=O)cc4)CC3)CC2)nn1` (some centres unmarked) [P-377], for which the “LVL THP1 HTRF YMIN” value is listed as 3.4% and the DC50 was found to be 8.3 nM.

As for `C[C@H](C#N)Nc1cc(-n2ncc3cc(C#N)cnc32)ncc1-n1cc(C2CCC(CCN3C[C@@H](C)N(c4ccc([C@@]5(C)CCC(=O)NC5=O)cc4)C[C@@H]3C)CC2)nn1` (some centres unmarked) [P-236], the “LVL THP1 HTRF YMIN” value amounted to 23.3% and the DC50 was found to be 269 nM.

Consider `C[C@H](C#N)Nc1cc(-n2ncc3cc(C#N)cnc32)ncc1C(=O)N[C@H]1CC[C@H](CCN2CC[C@H]3[C@@H]2CCN3c2ccc([C@@]3(C)CCC(=O)NC3=O)cc2)CC1` (single isomer, unassigned) [P-427], for which the “LVL THP1 HTRF YMIN” value worked out at 1.8% and the DC50 amounted to 40.4 nM.

On to `C[C@H](C#N)Nc1cc(Nc2ncc(C#N)cc2F)ncc1-n1cc([C@H]2CC[C@H](CCN3CCN(c4ccc(N5CCC(=O)NC5=O)cc4)CC3)CC2)nn1` [P-386], for which the “LVL THP1 HTRF YMIN” value worked out at 6.7% and the DC50 was 24.2 nM.

For the compound `C[C@H](C#N)Nc1cc(-n2ncc3cc(C#N)c(N)nc32)ncc1-n1cc([C@H]2CC[C@H](CCN3CCN(c4ccc([C@@]5(C)CCC(=O)NC5=O)nn4)CC3)CC2)nn1` (single isomer, unassigned) [P-309], the “LVL THP1 HTRF YMIN” value is 96.8% and the DC50 was found to be 1000 nM.

Consider `C[C@H](C#N)Nc1cc(-n2ncc3cc(C#N)cnc32)ncc1-n1cc([C@H]2CC[C@H](CCN3CC[C@H]4[C@@H]3CCN4c3ccc([C@@]4(C)CCC(=O)NC4=O)cn3)CC2)nn1` (single isomer, unassigned) [P-312], for which the “LVL THP1 HTRF YMIN” value was 7.9% and the DC50 is 13.2 nM.

For the compound `C[C@H](C#N)Nc1cc(-n2ncc3cc(C#N)cnc32)ncc1-n1cc([C@H]2CC[C@H](CCN3CCC(c4ccc(C5CCC(=O)NC5=O)cc4)CC3)CC2)nn1` (some centres unmarked) [P-209], the DC50 was 1 nM.

As to `C[C@H](C#N)Nc1cc(-n2ncc3cc(C#N)c(N)nc32)ncc1-n1cc([C@H]2CC[C@H](CCN3CCN(c4ccc([C@@]5(C)CCC(=O)NC5=O)cn4)CC3)CC2)nn1` (single isomer, unassigned) [P-265], the “LVL THP1 HTRF YMIN” value is 93.2% and the DC50 is 1000 nM.

On to `C[C@H](C#N)Nc1cc(-n2ncc3cc(C#N)c(N)nc32)ncc1-n1cc([C@H]2CC[C@H](CCN3CC[C@H]4[C@@H]3CCN4c3ccc([C@@]4(C)CCC(=O)NC4=O)cc3)CC2)nn1` (single isomer, unassigned) [P-453], for which the “LVL THP1 HTRF YMIN” value was 0.6% and the DC50 was determined as 4.6 nM.

For the compound `CC1CN(CC[C@H]2CC[C@H](c3cn(-c4cnc(-n5ncc6cc(C#N)cnc65)cc4N[C@H](C)C#N)nn3)CC2)CCC1c1ccc([C@@]2(F)CCC(=O)NC2=O)cc1` (single isomer, unassigned) [P-390], the “LVL THP1 HTRF YMIN” value is given as −1.8% and the DC50 is 2.8 nM.

For the compound `Cc1cc(N2CCN(CC[C@H]3CC[C@H](NC(=O)c4cnc(-n5ncc6cc(C#N)c(N)nc65)cc4N[C@H](C)C#N)CC3)C[C@H]2C)ccc1C1CCC(=O)NC1=O` (some centres unmarked) [P-171], the “LVL THP1 HTRF YMIN” value was found to be 1.2% and the DC50 is 23 nM.

On to `C[C@H](C#N)Nc1cc(-n2ncc3cc(C#N)cnc32)ncc1-c1cc([C@H]2CC[C@H](CCN3CCN(c4ccc(C5CCC(=O)NC5=O)cc4)CC3)CC2)on1` (some centres unmarked) [P-196], for which the DC50 amounted to 167 nM.

In the case of `C[C@H](C#N)Nc1cc(-n2ncc3cc(C#N)c(N)nc32)ncc1-n1cc([C@H]2CC[C@H](CCN3CCN(c4ccc([C@@]5(C)CCC(=O)NC5=O)nc4)CC3)CC2)nn1` (single isomer, unassigned) [P-306], the “LVL THP1 HTRF YMIN” value is recorded as 1.5% and the DC50 is 3.7 nM.

Take `C[C@H](C#N)Nc1cc(-n2ncc3cc(C#N)cnc32)ncc1-n1cc([C@H]2CC[C@H](CCN3CCC(c4ccn(C5CCC(=O)NC5=O)c(=O)c4)CC3)CC2)nn1` (some centres unmarked) [P-413]: the “LVL THP1 HTRF YMIN” value is −1.3% and the DC50 was determined as 5.1 nM.

On to `C[C@H](C#N)Nc1cc(-n2ncc3cc(C#N)cnc32)ncc1-n1cc([C@H]2CC[C@H](CCN3CC4(CC(c5ccc(N6CCC(=O)NC6=O)c(F)c5)C4)C3)CC2)nn1` [P-444], for which the “LVL THP1 HTRF YMIN” value is reported as −1.6% and the DC50 was 5.2 nM.
